Data on 4 substances can be found in US12551525B2, “Collagen peptide-based medicament compositions and devices and methods of production and use thereof” (SUSTAIN HOLDINGS, LLC, priority 2017, dated 2026).

The test system of data set [1] is corneal epithelium in wounded mouse eyes. Briefly: In vivo healing of mouse corneal epithelium (corneal wound model, fluorescein staining). Conditions: 25 nM (about 3 mg/kg) in aqueous PBS, applied after 1.5 mm epithelial wound; within 16 hours post-treatment; compared to PBS and EGF controls. The arrangement: species or system mouse (C57BL/6). The procedure: The FIG. 1s a series of photomicrographs depicting the healing of a wound in the cornea of mouse eye, at time 0 and 16 hours post-wounding, upon treatment with certain compositions of the present invention. Wounds were introduced into the corneas of mice, and the mice treated immediately after wounding with vehicle (PBS), with 100 ng/ml of epidermal growth factor (EGF), or with 25 nM (about 3 mg/kg) of a (Pro-Pro-Gly)7 CMP of the invention (SEQ ID NO:1) (“Cmpd 3”), or of a (Hyp-Pro-Gly)7-SubP CMP-TC of the invention (SEQ ID NO:390) (“Cmpd 10”).
To examine the possible therapeutic effects of CMPs and CMP-TC conjugates of the invention, studies were designed to test certain CMPs and CMP-TC conjugates in an in vivo setting—the healing of the corneal epithelium in wounded mouse eyes. […] Wound size at various time points over 48 hours was examined by fluorescein staining (see Carlson et al., id.), and documented via fluorescent photomicrography, and quantified using Image J software (see Rush, J. S. et al., Investig. Ophthalmol. Visual Sci. 57 (14): 5864-5871 (2016); Rush, J. S. et al., Investig. Ophthalmol. Visual Sci. 55 (8): 4691-4699 (2014)). […]

The conditions of data set [2]: triple helix of the peptide chains; Sakakibara et al. 1973; cited from earlier work.

With (Pro-Pro-Gly)7 [Cmpd 3], the “wound healing in mouse cornea and corneal stroma (reduction in diameter and intensity of fluorescein fluorescence)” value in data set [1] is “significant acceleration of wound healing”.
As to (ProProGly)10, the “melting temperature of a triple helix” value in data set [2] was 24 °C.
Turning to (ProHypGly)10, the “melting temperature of a triple helix” value in data set [2] is 58 °C.
On to (Hyp-Pro-Gly)7-SubP [Cmpd 10], for which, in data set [1], the “wound healing in mouse cornea and corneal stroma (reduction in diameter and intensity of fluorescein fluorescence)” value is reported as “significant acceleration of wound healing”.
